Reference: ChEMBL document CHEMBL3596195, “Novel cajaninstilbene acid derivatives as antibacterial agents” (Eur J Med Chem, 2015)
≈ marks a conversion by molar mass, not a printed value.

Legend:
Format in all cases: functional
[1] = system: Staphylococcus aureus; experiment: Antibacterial activity against Staphylococcus aureus ATCC25923 assessed as bacterial growth inhibition after 24 hrs by broth dilution method; settings: ATCC25923, 24 h
[2] = system: Staphylococcus epidermidis; experiment: Antibacterial activity against Staphylococcus epidermidis ATCC12228 assessed as bacterial growth inhibition after 24 hrs by broth dilution method; settings: ATCC12228, 24 h
[3] = system: Bacillus subtilis; experiment: Antibacterial activity against Bacillus subtilis ATCC6633 assessed as bacterial growth inhibition after 24 hrs by broth dilution method; settings: ATCC6633, 24 h
[4] = system: Escherichia coli; experiment: Antibacterial activity against Escherichia coli ATCC25922 assessed as bacterial growth inhibition after 24 hrs by broth dilution method; settings: ATCC25922, 24 h
[5] = system: Proteus vulgaris; experiment: Antibacterial activity against Proteus vulgaris ATCC49101 assessed as bacterial growth inhibition after 24 hrs by broth dilution method; settings: ATCC49101, 24 h
[6] = system: Pseudomonas aeruginosa; experiment: Antibacterial activity against Pseudomonas aeruginosa ATCC2785 assessed as bacterial growth inhibition after 24 hrs by broth dilution method; settings: ATCC2785, 24 h
[7] = system: Staphylococcus aureus; experiment: Antibacterial activity against methicillin-resistant Staphylococcus aureus ATCC43300 assessed as bacterial growth inhibition after 24 hrs by broth dilution method; settings: ATCC43300, 24 h
[8] = system: Staphylococcus aureus; experiment: Antibacterial activity against methicillin-resistant Staphylococcus aureus ATCC523512 assessed as bacterial growth inhibition after 24 hrs by broth dilution method; settings: ATCC523512, 24 h
[9] = system: Staphylococcus aureus; experiment: Antibacterial activity against methicillin-resistant Staphylococcus aureus ATCC425055 assessed as bacterial growth inhibition after 24 hrs by broth dilution method; settings: ATCC425055, 24 h
[10] = system: Staphylococcus aureus; experiment: Antibacterial activity against methicillin-resistant Staphylococcus aureus ATCC513045 assessed as bacterial growth inhibition after 24 hrs by broth dilution method; settings: ATCC513045, 24 h
[11] = system: Staphylococcus aureus; experiment: Antibacterial activity against methicillin-resistant Staphylococcus aureus ATCC62202 assessed as bacterial growth inhibition after 24 hrs by broth dilution method; settings: ATCC62202, 24 h
[12] = system: Staphylococcus aureus; experiment: Antibacterial activity against methicillin-resistant Staphylococcus aureus ATCC51033 assessed as bacterial growth inhibition after 24 hrs by broth dilution method; settings: ATCC51033, 24 h
[13] = system: Staphylococcus aureus; experiment: Antibacterial activity against methicillin-resistant Staphylococcus aureus ATCC52056 assessed as bacterial growth inhibition after 24 hrs by broth dilution method; settings: ATCC52056, 24 h
[14] = system: Staphylococcus aureus; experiment: Antibacterial activity against methicillin-resistant Staphylococcus aureus ATCC515992 assessed as bacterial growth inhibition after 24 hrs by broth dilution method; settings: ATCC515992, 24 h
[15] = system: Staphylococcus aureus; experiment: Antibacterial activity against methicillin-resistant Staphylococcus aureus ATCC510019 assessed as bacterial growth inhibition after 24 hrs by broth dilution method; settings: ATCC510019, 24 h

COC(=O)c1c(/C=C/c2ccccc2)cc(OC)c(CC=C(C)C)c1O
MIC [1]: > 128 µg/mL
MIC [2]: > 128 µg/mL
MIC [3]: > 128 µg/mL
MIC [4]: > 128 µg/mL
MIC [5]: > 128 µg/mL
MIC [6]: > 128 µg/mL
MIC [7]: 128 µg/mL (≈ 363 µM)
MIC [8]: > 128 µg/mL
MIC [9]: 128 µg/mL (≈ 363 µM)
MIC [10]: 128 µg/mL (≈ 363 µM)
MIC [11]: 128 µg/mL (≈ 363 µM)
MIC [12]: > 128 µg/mL
MIC [13]: > 128 µg/mL
MIC [14]: > 128 µg/mL
MIC [15]: > 128 µg/mL

COC(=O)c1c(O)cc(OC)cc1/C=C/c1cccc(C#N)c1
MIC [1]: > 128 µg/mL
MIC [2]: > 128 µg/mL
MIC [3]: > 128 µg/mL
MIC [4]: > 128 µg/mL
MIC [5]: > 128 µg/mL
MIC [6]: > 128 µg/mL
MIC [7]: > 128 µg/mL
MIC [8]: > 128 µg/mL
MIC [9]: > 128 µg/mL
MIC [10]: > 128 µg/mL
MIC [11]: > 128 µg/mL
MIC [12]: 128 µg/mL (≈ 414 µM)
MIC [13]: > 128 µg/mL
MIC [14]: 64 µg/mL (≈ 207 µM)
MIC [15]: > 128 µg/mL

COC(=O)c1c(/C=C/c2ccccc2F)cc(OC)c(CC=C(C)C)c1O
MIC [1]: > 128 µg/mL
MIC [2]: > 128 µg/mL
MIC [3]: > 128 µg/mL
MIC [4]: > 128 µg/mL
MIC [5]: > 128 µg/mL
MIC [6]: > 128 µg/mL
MIC [7]: 128 µg/mL (≈ 346 µM)
MIC [8]: > 128 µg/mL
MIC [9]: 128 µg/mL (≈ 346 µM)
MIC [10]: 128 µg/mL (≈ 346 µM)
MIC [11]: 128 µg/mL (≈ 346 µM)
MIC [12]: > 128 µg/mL
MIC [13]: > 128 µg/mL
MIC [14]: > 128 µg/mL
MIC [15]: > 128 µg/mL

COc1cc(/C=C/c2cccc(C#N)c2)c(C(=O)O)c(O)c1CC=C(C)C
MIC [1]: 4 µg/mL (≈ 11 µM)
MIC [2]: 2 µg/mL (≈ 5.5 µM)
MIC [3]: 16 µg/mL (≈ 44 µM)
MIC [4]: > 128 µg/mL
MIC [5]: > 64 µg/mL
MIC [6]: > 64 µg/mL
MIC [7]: 8 µg/mL (≈ 22 µM)
MIC [8]: 2 µg/mL (≈ 5.5 µM)
MIC [9]: 1 µg/mL (≈ 2.75 µM)
MIC [10]: 4 µg/mL (≈ 11 µM)
MIC [11]: 0.5 µg/mL (≈ 1.38 µM)
MIC [12]: 2 µg/mL (≈ 5.5 µM)
MIC [13]: 4 µg/mL (≈ 11 µM)
MIC [14]: 2 µg/mL (≈ 5.5 µM)
MIC [15]: 2 µg/mL (≈ 5.5 µM)

COC(=O)c1c(O)cc(OC)cc1/C=C/c1ccc(OC)cc1
MIC [1]: > 128 µg/mL
MIC [2]: > 128 µg/mL
MIC [3]: > 128 µg/mL
MIC [4]: > 128 µg/mL
MIC [5]: > 128 µg/mL
MIC [6]: 128 µg/mL (≈ 407 µM)
MIC [7]: > 128 µg/mL
MIC [8]: > 128 µg/mL
MIC [9]: > 128 µg/mL
MIC [10]: > 128 µg/mL
MIC [11]: > 128 µg/mL
MIC [12]: > 128 µg/mL
MIC [13]: > 128 µg/mL
MIC [14]: > 128 µg/mL
MIC [15]: 128 µg/mL (≈ 407 µM)

COC(=O)c1c(/C=C/c2ccc(C(F)(F)F)cc2)cc(OC)c(CC=C(C)C)c1O
MIC [1]: 64 µg/mL (≈ 152 µM)
MIC [2]: 64 µg/mL (≈ 152 µM)
MIC [3]: 128 µg/mL (≈ 304 µM)
MIC [4]: > 128 µg/mL
MIC [5]: > 128 µg/mL
MIC [6]: > 128 µg/mL
MIC [7]: > 128 µg/mL
MIC [8]: 64 µg/mL (≈ 152 µM)
MIC [9]: 64 µg/mL (≈ 152 µM)
MIC [10]: 128 µg/mL (≈ 304 µM)
MIC [11]: 128 µg/mL (≈ 304 µM)
MIC [12]: > 128 µg/mL
MIC [13]: 128 µg/mL (≈ 304 µM)
MIC [14]: > 128 µg/mL
MIC [15]: > 128 µg/mL

COC(=O)c1c(/C=C/c2cccc(F)c2)cc(OC)c(CC=C(C)C)c1O
MIC [1]: 64 µg/mL (≈ 173 µM)
MIC [2]: > 128 µg/mL
MIC [3]: 128 µg/mL (≈ 346 µM)
MIC [4]: > 128 µg/mL
MIC [5]: > 128 µg/mL
MIC [6]: > 128 µg/mL
MIC [7]: > 128 µg/mL
MIC [8]: 64 µg/mL (≈ 173 µM)
MIC [9]: > 128 µg/mL
MIC [10]: 128 µg/mL (≈ 346 µM)
MIC [11]: 128 µg/mL (≈ 346 µM)
MIC [12]: 128 µg/mL (≈ 346 µM)
MIC [13]: > 128 µg/mL
MIC [14]: > 128 µg/mL
MIC [15]: 128 µg/mL (≈ 346 µM)

COc1cc(/C=C/c2ccc(Cl)cc2)c(C(=O)O)c(O)c1CC=C(C)C
MIC [1]: 8 µg/mL (≈ 21.5 µM)
MIC [2]: 4 µg/mL (≈ 10.7 µM)
MIC [3]: 2 µg/mL (≈ 5.36 µM)
MIC [4]: 128 µg/mL (≈ 343 µM)
MIC [5]: > 64 µg/mL
MIC [6]: > 64 µg/mL
MIC [7]: 2 µg/mL (≈ 5.36 µM)
MIC [8]: 4 µg/mL (≈ 10.7 µM)
MIC [9]: 4 µg/mL (≈ 10.7 µM)
MIC [10]: 4 µg/mL (≈ 10.7 µM)
MIC [11]: 2 µg/mL (≈ 5.36 µM)
MIC [12]: 0.5 µg/mL (≈ 1.34 µM)
MIC [13]: 2 µg/mL (≈ 5.36 µM)
MIC [14]: 4 µg/mL (≈ 10.7 µM)
MIC [15]: 1 µg/mL (≈ 2.68 µM)

COC(=O)c1c(O)cc(OC)cc1/C=C/c1ccc(C)cc1
MIC [1]: > 128 µg/mL
MIC [2]: > 128 µg/mL
MIC [3]: > 128 µg/mL
MIC [4]: > 128 µg/mL
MIC [5]: > 128 µg/mL
MIC [6]: > 128 µg/mL
MIC [7]: > 128 µg/mL
MIC [8]: > 128 µg/mL
MIC [9]: 128 µg/mL (≈ 429 µM)
MIC [10]: > 128 µg/mL
MIC [11]: > 128 µg/mL
MIC [12]: 128 µg/mL (≈ 429 µM)
MIC [13]: > 128 µg/mL
MIC [14]: > 128 µg/mL
MIC [15]: > 128 µg/mL

COC(=O)c1c(/C=C/c2cc(OC)c(OC)c(OC)c2)cc(OC)c(CC=C(C)C)c1O
MIC [1]: > 128 µg/mL
MIC [2]: 64 µg/mL (≈ 145 µM)
MIC [3]: > 128 µg/mL
MIC [4]: > 128 µg/mL
MIC [5]: > 128 µg/mL
MIC [6]: > 128 µg/mL
MIC [7]: > 128 µg/mL
MIC [8]: > 128 µg/mL
MIC [9]: > 128 µg/mL
MIC [10]: > 128 µg/mL
MIC [11]: > 128 µg/mL
MIC [12]: 128 µg/mL (≈ 289 µM)
MIC [13]: > 128 µg/mL
MIC [14]: 64 µg/mL (≈ 145 µM)
MIC [15]: > 128 µg/mL

COC(=O)c1c(/C=C/c2ccc(OC)cc2)cc(OC)c(CC=C(C)C)c1O
MIC [1]: 128 µg/mL (≈ 335 µM)
MIC [2]: > 128 µg/mL
MIC [3]: > 128 µg/mL
MIC [4]: > 128 µg/mL
MIC [5]: > 128 µg/mL
MIC [6]: > 128 µg/mL
MIC [7]: 128 µg/mL (≈ 335 µM)
MIC [8]: 128 µg/mL (≈ 335 µM)
MIC [9]: 128 µg/mL (≈ 335 µM)
MIC [10]: 128 µg/mL (≈ 335 µM)
MIC [11]: > 128 µg/mL
MIC [12]: > 128 µg/mL
MIC [13]: 128 µg/mL (≈ 335 µM)
MIC [14]: > 128 µg/mL
MIC [15]: 128 µg/mL (≈ 335 µM)

COc1cc(O)c(C(=O)O)c(/C=C/c2ccccc2)c1
MIC [1]: > 128 µg/mL
MIC [2]: > 128 µg/mL
MIC [3]: 64 µg/mL (≈ 237 µM)
MIC [4]: > 128 µg/mL
MIC [5]: > 128 µg/mL
MIC [6]: > 128 µg/mL
MIC [7]: > 128 µg/mL
MIC [8]: > 128 µg/mL
MIC [9]: > 128 µg/mL
MIC [10]: > 128 µg/mL
MIC [11]: 128 µg/mL (≈ 474 µM)
MIC [12]: > 128 µg/mL
MIC [13]: 128 µg/mL (≈ 474 µM)
MIC [14]: > 128 µg/mL
MIC [15]: > 128 µg/mL
